Assays:
[1] = In vitro skin penetration and permeation of 3H BMV, Franz type diffusion cells; assay type: in vitro ADME, porcine; conditions: barrier-impaired versus intact skin, applied in SLN
Method: The porcine ears were obtained from newly slaughtered pigs from the Danish Meat Trade College (Roskilde, Denmark). The ears were stored at −20° C. and thawed slowly at 4° C. before shaving and removing full-thickness skin from the back of the ears using a scalpel. Subcutaneous tissue was carefully removed with a scalpel and the skin was cut into appropriate pieces before freezing at −20° C. until use (after no more than 14 days). Two skin pieces were obtained from each ear, and they were balanced with respect to intact and barrier-impaired skin.
Skin barrier impairment was induced by 25 successive tape strippings applying D-Squame® tape discs (Cuderm Corp., Dallas, USA). 225 g/cm^2 pressure on the tape was applied with a D-Squame® tape applicator for 5 sec. (Cuderm Corp., Dallas, USA). […]
Penetration profiles of BMV and lipid were evaluated. ^3H-labelled BMV and ^14C-labelled lipid were used to study the penetration of BMV and lipid particles (distearate and tripalmitate) into intact and barrier-impaired skin.
The skin was mounted on Franz type diffusion cells with the dermis side facing the receptor medium (diffusion area 3.14 cm^2, recipient volume 10 ml, constant stirring, temperature kept at 32° C.). […] The exact amount of formulation applied was determined by weighing the spatula before and after application. After complete incubation, the skin was separated and analyzed. […]

[2] = test system: IL-1β, IL-4, IL-8, IL-10 and IL-12; test: Cytokine level in ear tissue (MSD mouse TH1/TH2 9-plex); assay type: in vivo, mice; conditions: upon treatment with BMV
Method: The remaining ear tissue from the 8 mm biopsy was cut into two halves, one of which was tape stripped before analysing the drug concentration and the other was used for cytokine analysis. Both were snap-frozen in liquid nitrogen and stored at −80° C. until the analysis was carried out.
The ear tissue was homogenized in 200 μl lysis buffer using a Precellys® 24 tissue homogenizer with a Cryolys cooling unit from Bertin Technologies (Montigny-le-Bretonneux, France). The lysis buffer was composed of 1 mM Na3VO4, 0.4% (v/v) nonyl phenoxypolyethoxylethanol (NP40) and the protease inhibitor Complete™ from Roche Diagnostics (Mannheim, Germany) dissolved in PBS. […] The supernatant was kept at −80° C. until the MSD® cytokine assay was performed. A determination of the total protein concentration was performed to normalize the sample concentration before the cytokine determination. […] Specific level of the cytokines IFN-γ, IL-1-β, IL-2, IL-4, IL-5, IL-8, IL-10, IL-12 total and TNF-α in the ear tissue were determined with a MSD® mouse TH1/TH2 9-plex Multi-Spot® 96-well 10 spot plate using a MSD® Sector Imager 6000 (Meso Scale Discovery, Gaithersburg, Md., USA). The MSD® assay was optimized for tissue use. […] Washing was repeated 3 times with 0.05% (v/v) polysorbate 20 before finally adding 150 μl read buffer diluted 1:2 in MilliQ water and reading the plate on the MSD® Sector Imager 6000.

CCCCC(=O)O[C@]1(C(=O)CO)[C@@H](C)C[C@H]2[C@@H]3CCC4=CC(=O)C=C[C@]4(C)[C@@]3(F)[C@@H](O)C[C@@]21C [BMV, Betamethasone-17-Valerate]
increase in BMV penetration [1]: 3-60 fold | concentration of IL-5 and TNF-α [2]: below the detection limit
